Laboratory results published in US20130317095A1, “Use of Artemisine Derivatives and Pharmaceutical Salts Thereof” (Shanghai Institute of Materia Medica, Chinese Academy of …, priority 2011, published 2013).

What was measured:
[1] = test system: transplanted tumor with U937 cells; assay: Mouse transplanted tumor model, U937; type: in vivo; conditions: mice, U937 tumor under the skin, intraperitoneal 0.1 ml per day, 18-35 d
Experimental: (§1) Developing mouse transplanted tumor models with acute myeloid leukemic cell lines such as Kasumi-1, HL60 and U937 cells, inject 1×10^7 leukemic cells under the skin. When the tumors are 5 mm in diameter, divide the mice into two groups, control group(con) and groups with SM1044 in various concentrations. Mice intraperitoneally infused with 0.125 ml (kasumi-1 and H160 cells) or 0.1 ml (U937 cells) SM1044 per day, while mice in control groups get equivalent saline, for a course of 18-35 d, measuring the tumors everyday.

[2] = test system: caspase-3, caspase-8 and/or caspase-9 in NB4-R1 cells; assay: Western blot of apoptosis-related proteins, NB4-R1; type: cell-based; conditions: NB4-R1, 24 hours
Experimental: (§2) Respectively plate 3×10^5˜5×10^5 cells/ml of NB4-R1, HL60 and U937 cells in dishes. Setting control group (0 μM) and groups with SM1044 in various concentrations, and incubating for 24 hours. Extracting whole protein of the cells, detect the quantitive variation of […] related proteins (PARP, caspase-3, caspase-8, caspase-9) by antibodies through western blot. Caspase family plays an important role in mediating apoptosis. There are at least two broad pathways that lead to Apoptosis. One is extracellular signals activating intracellular caspase-8, etc, the other is mitochondria-derived activators of caspases activating caspase-9, etc. Therefore the activaigted caspases activate apoptotic excutants—caspase3 to induce apoptosis, and PARP is the substrate of caspase-3.

[3] = test system: transplanted tumor with Kasumi-1 cells; assay: Mouse transplanted tumor model, Kasumi-1; type: in vivo; conditions: mice, Kasumi-1 tumor under the skin, intraperitoneal 0.125 ml per day, 18-35 d
Experimental: as §1

[4] = test system: caspase-3, caspase-8 and/or caspase-9 in U937 cells; assay: Western blot of apoptosis-related proteins, U937; type: cell-based; conditions: U937, 24 hours
Experimental: as §2

Kasumi-1 cells [5] = assay: Loss of mitochondrial membrane potential, DiOC6(3) flow cytometry, Kasumi-1; type: cell-based
Experimental: (§3) Respectively plate 3×10^5˜5×10^5 cells/ml of Kasumi-1, NB4-R1, HL60 and U937cells in dishes. Setting control group (0 μM) and groups with SM1044 in various concentrations, incubate for 24 h and 48 h. Add 20 nM DiOC6(3) and incubate for 15 min at 37° C. in the dark. Wash cells with PBS twice, and resuspend the cells in 100 μLPBS, analyzing by flow cytometry. The cells which are DiOC6(3) negative are those that lose mitochondrial membrane potential. […] There are at least two broad pathways that lead to Apoptosis, an “Extrinsic” and an “Intrinsic” Pathway, and the loss of mitochondrial membrane potential is very closely related to intrinsic pathway.

HL-60 cells = assay: Loss of mitochondrial membrane potential, DiOC6(3) flow cytometry, HL-60; type: cell-based
Experimental: as §3

[6] = test system: caspase-3, caspase-8 and/or caspase-9 in HL60 cells; assay: Western blot of apoptosis-related proteins, HL60; type: cell-based; conditions: HL60, 24 hours
Experimental: as §2

U937 cells [7] = assay: MTT inhibition test, U937 cells; type: cell-based; conditions: Homo sapiens, U-937, 48 h
Experimental: (§4) First dissolve SM1044 in triple distilled water, concentration: 1 mg/ml, then choose typical AML cell lines such as Kasumi-1, NB4-R1, HL60 and U937 cells to perform the experiments. Plate 2.5×10^5 cells in dishes, respectively, blank group, control group without SM1044, and groups with SM1044 in various concentrations, and 3 wells for each concentration. Add MTT (5 mg/ml) to each well after incubating for a certain period, and incubate the plate for further 4 h. Centrifuge and aspirate 180 μl supernatant. Add 180 μl DMSO to each well, and place the plate a shaking table for 15 min. Measure the absorbance(A) at 570 nm using a microplate reader, and calculate the half maximal inhibitory concentration (IC50).

Kasumi-1 cells [8] = assay: MTT inhibition test, Kasumi-1 cells; type: cell-based; conditions: Homo sapiens, 48 h
Experimental: as §4

U937 cells [9] = assay: Loss of mitochondrial membrane potential, DiOC6(3) flow cytometry, U937; type: cell-based
Experimental: as §3

oncogene c-myc = assay: Western blot of c-myc expression in HL60 cells; type: cell-based; conditions: HL60, above 1 μM/L, 24 hours
Experimental: Plate 3×10^5/mL HL60 cells in dishes. Setting control group (0 μM) and groups with SM1044 in various concentrations, and incubating for 24 hours. Extracting whole protein of the cells, detect the variation of expression of oncogene c-myc by c-myc antibody through western blot. Over-expression of oncogene c-myc is a character of HL60 cells.

NB4-R1 cells [10] = assay: Loss of mitochondrial membrane potential, DiOC6(3) flow cytometry, NB4-R1; type: cell-based
Experimental: as §3

HL60 cells [11] = assay: Cell cycle analysis, PI flow cytometry, HL60; type: cell-based; conditions: for cells in G0/G1 phase / cells in G2/M phase / cells in S phase: 12 hours
Experimental: (§5) Plate 5×10^5/mL Kasumi-1 cells and HL60 cells respectively in dishes. Setting control group (0 μM) and groups with SM1044 in various concentrations, and incubating for 24 hours (kasumi-1 cells) or 12 hours (HL60 cells). Harvest the cells, wash cells with PBS twice, and add 70% ice cold ethanol overnight to fix the cells. Wash cells with PBS, and resuspend the cells in PBS with 10 mg/ml RNase, incubating at 37° C. for 30 min. Add 50 μg/ml propidium iodide (PI), analyzing the distribution of DNA contents by flow cytometry in 1 hour.

AML1-ETO fusion protein = target: T1, AML1-ETO fusion protein (Homo sapiens, UniProt Q01196+Q06455); assay: Western blot of AML1-ETO fusion protein in Kasumi-1 cells; type: cell-based; conditions: Kasumi-1, 1 μM/L, 24 hours
T1 construct: Extracting whole protein of the cells; endogenous in cells; host or cells: Kasumi-1 cells
Experimental: (§6) Plate 1×10^7 Kasumi-1 cells with 20 mL medium in dish. Setting control group (0 μM) and groups with SM1044 in various concentrations, and incubating for 24 hours. Extract the whole RNA, and detect the variation of fusion gene at the mRNA level by RT-PCR (FIG. 5A). […] Plate 5×10^5 Kasumi-1 cells in a dish. Setting control group (0 μM) and groups with SM1044 in various concentrations, and incubating for 24 hours. Extracting whole protein of the cells, detect the variation of AML1-ETO fusion protein by ETO antibody through western blot (FIG. 5B). […] It can be concluded that SM1044 doesn't effect the transcription of AML1-ETO fusion gene, but can induce the degradation of the fusion protein. As the typical fusion gene of AML-M2b, AML1-ETO fusion protein plays an important role in the occurrence of leukemia, which can be a target for medical treatments.

U937 cells [12] = assay: Annexin V-FITC/PI flow cytometry apoptosis, U937; type: cell-based; conditions: U937, 24-48 hours, various concentrations
Experimental: (§7) Respectively plate 3×10^5˜5×10^5 cells/m1 of Kasumi-1, NB4-R1, HL60 and U937cells in dishes. Setting control group (0 μM) and groups with SM1044 in various concentrations, incubate for 24 h and 48 h. Harvest cells and wash cells with pre-cooling phosphate buffer twice. Resuspend the cells in 200 μL binding buffer, and add 5 μL Annexin V-FITC and 5 μL propidium iodide (PI), gently mixing, incubating for 15 min at room temperature in the dark, analyzing by flow cytometry in 1 hour.

Kasumi-1 cells [13] = assay: Cell cycle analysis, PI flow cytometry, Kasumi-1; type: cell-based; conditions: for cells in G0/G1 phase / cells in G2/M phase / cells in S phase: 24 hours
Experimental: as §5

HL60 cells [14] = assay: Annexin V-FITC/PI flow cytometry apoptosis, HL60; type: cell-based; conditions: HL60, 24-48 hours, various concentrations
Experimental: as §7

NB4-R1 cells [15] = assay: MTT inhibition test, NB4-R1 cells; type: cell-based; conditions: 48 h
Experimental: as §4

HL60 cells [16] = assay: MTT inhibition test, HL60 cells; type: cell-based; conditions: Homo sapiens, HL-60, 48 h
Experimental: as §4

[17] = test system: transplanted tumor with HL60 cells; assay: Mouse transplanted tumor model, HL60; type: in vivo; conditions: mice, HL60 tumor under the skin, intraperitoneal 0.125 ml per day, 18-35 d
Experimental: as §1

Kasumi-1 cells [18] = assay: Annexin V-FITC/PI flow cytometry apoptosis, Kasumi-1; type: cell-based; conditions: Kasumi-1, 24-48 hours, various concentrations
Experimental: as §7

NB4-R1 cells [19] = assay: Annexin V-FITC/PI flow cytometry apoptosis, NB4-R1; type: cell-based; conditions: NB4-R1, 24-48 hours, various concentrations
Experimental: as §7

AML1-ETO fusion gene = assay: RT-PCR of AML1-ETO fusion gene mRNA in Kasumi-1 cells; type: cell-based; conditions: Kasumi-1, 24 hours
Experimental: as §6

T1 sequence (Q01196+Q06455 fused): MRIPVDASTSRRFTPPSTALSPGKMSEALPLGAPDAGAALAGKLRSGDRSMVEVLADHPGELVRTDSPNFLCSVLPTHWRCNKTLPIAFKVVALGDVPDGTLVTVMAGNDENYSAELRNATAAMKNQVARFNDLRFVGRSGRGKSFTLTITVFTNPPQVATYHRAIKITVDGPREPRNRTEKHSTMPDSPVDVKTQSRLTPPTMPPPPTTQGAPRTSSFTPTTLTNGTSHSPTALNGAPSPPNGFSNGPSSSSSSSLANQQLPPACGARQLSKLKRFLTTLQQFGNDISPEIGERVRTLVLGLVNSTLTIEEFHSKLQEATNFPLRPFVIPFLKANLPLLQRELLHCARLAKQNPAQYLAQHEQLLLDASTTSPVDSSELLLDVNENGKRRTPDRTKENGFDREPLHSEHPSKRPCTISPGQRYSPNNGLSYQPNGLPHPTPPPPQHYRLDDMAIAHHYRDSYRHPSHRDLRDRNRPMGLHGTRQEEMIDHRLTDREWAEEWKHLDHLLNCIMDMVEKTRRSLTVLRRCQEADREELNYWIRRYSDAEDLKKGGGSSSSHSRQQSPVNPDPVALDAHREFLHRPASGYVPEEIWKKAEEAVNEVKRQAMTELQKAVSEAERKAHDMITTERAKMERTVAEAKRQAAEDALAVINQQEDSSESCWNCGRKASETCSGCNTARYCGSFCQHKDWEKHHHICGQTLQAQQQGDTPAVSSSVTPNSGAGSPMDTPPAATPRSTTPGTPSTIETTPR

SMILES: C[C@H]1[C@@H](OCCNCCO[C@H]2O[C@@H]3O[C@@]4(C)CC[C@H]5[C@H](C)CC[C@@H]([C@H]2C)[C@@]35OO4)O[C@@H]2O[C@@]3(C)CC[C@H]4[C@H](C)CC[C@@H]1[C@@]24OO3.O=C(O)/C=C\C(=O)O [SM1044, diarteethe amine maleate]
- tumor size compared with control group [1]: obviously little than controls
- activated apoptosis-related proteins (caspase-3, caspase-8 and/or caspase-9) [2]: increase
- tumor size compared with control group [3]: obviously little than controls
- activated apoptosis-related proteins (caspase-3, caspase-8 and/or caspase-9) [4]: increase
- percentage of DiOC6(3) negtive Kasumi-1 cells (Kasumi-1 cells [5]; 0.1 μM, 24 h): 24.1%
- percentage of DiOC6(3) negtive Kasumi-1 cells (Kasumi-1 cells [5]; 0.1 μM, 48 h): 44.9%
- percentage of DiOC6(3) negtive Kasumi-1 cells (Kasumi-1 cells [5]; 1 μM, 24 h): 33.8%
- percentage of DiOC6(3) negtive Kasumi-1 cells (Kasumi-1 cells [5]; 1 μM, 48 h): 47.1%
- percentage of DiOC6(3) negtive Kasumi-1 cells (Kasumi-1 cells [5]; 5 μM, 24 h): 63.2%
- percentage of DiOC6(3) negtive Kasumi-1 cells (Kasumi-1 cells [5]; 5 μM, 48 h): 79.2%
- percentage of DiOC6(3) negative HL-60 cells (HL-60 cells; 0.1 μM, 24 h): 23.8%
- percentage of DiOC6(3) negative HL-60 cells (HL-60 cells; 0.1 μM, 48 h): 61.7%
- percentage of DiOC6(3) negative HL-60 cells (HL-60 cells; 1 μM, 24 h): 25.6%
- percentage of DiOC6(3) negative HL-60 cells (HL-60 cells; 1 μM, 48 h): 77.1%
- percentage of DiOC6(3) negative HL-60 cells (HL-60 cells; 5 μM, 24 h): 48.5%
- percentage of DiOC6(3) negative HL-60 cells (HL-60 cells; 5 μM, 48 h): 81.1%
- activated apoptosis-related proteins (caspase-3, caspase-8 and/or caspase-9) [6]: increase
- IC50 (U937 cells [7]): 20 nM
- IC50 (Kasumi-1 cells [8]): 170 nM
- percentage of DiOC6(3) negative U937 cells (U937 cells [9]; 0.1 μM, 24 h): 4.3%
- percentage of DiOC6(3) negative U937 cells (U937 cells [9]; 0.1 μM, 48 h): 5.9%
- percentage of DiOC6(3) negative U937 cells (U937 cells [9]; 1 μM, 24 h): 5.2%
- percentage of DiOC6(3) negative U937 cells (U937 cells [9]; 1 μM, 48 h): 5.6%
- percentage of DiOC6(3) negative U937 cells (U937 cells [9]; 5 μM, 24 h): 9.4%
- percentage of DiOC6(3) negative U937 cells (U937 cells [9]; 5 μM, 48 h): 16.2%
- expression of oncogene c-myc (oncogene c-myc): completely inhibit
- percentage of DiOC6(3) negative NB4-R1 cells (NB4-R1 cells [10]; 0.1 μM, 24 h): 13.9%
- percentage of DiOC6(3) negative NB4-R1 cells (NB4-R1 cells [10]; 0.1 μM, 48 h): 16.3%
- percentage of DiOC6(3) negative NB4-R1 cells (NB4-R1 cells [10]; 1 μM, 24 h): 17.1%
- percentage of DiOC6(3) negative NB4-R1 cells (NB4-R1 cells [10]; 1 μM, 48 h): 33.0%
- percentage of DiOC6(3) negative NB4-R1 cells (NB4-R1 cells [10]; 5 μM, 24 h): 15.0%
- percentage of DiOC6(3) negative NB4-R1 cells (NB4-R1 cells [10]; 5 μM, 48 h): 30.0%
- cells in G0/G1 phase (HL60 cells [11]; HL60, 0.1 μM): 41.60%
- cells in G2/M phase (HL60 cells [11]; HL60, 0.1 μM): 3.80%
- cells in S phase (HL60 cells [11]; HL60, 0.1 μM): 54.61%
- cells in G0/G1 phase (HL60 cells [11]; HL60, 1 μM): 44.12%
- cells in G2/M phase (HL60 cells [11]; HL60, 1 μM): 8.00%
- cells in S phase (HL60 cells [11]; HL60, 1 μM): 47.88%
- cells in G0/G1 phase (HL60 cells [11]; HL60, 5 μM): 54.48%
- cells in G2/M phase (HL60 cells [11]; HL60, 5 μM): 8.00%
- cells in S phase (HL60 cells [11]; HL60, 5 μM): 37.52%
- cell cycle block (HL60 cells [11]; HL60, 12 hours): blocked in G0/G1 phase
- degradation of AML1-ETO fusion protein (AML1-ETO fusion protein): can induce the degradation of AML1-ETO fusion protein
- apoptosis induction (U937 cells [12]): can induce apoptosis
- cells in G0/G1 phase (Kasumi-1 cells [13]; Kasumi-1, 0.1 μM): 59.62%
- cells in G2/M phase (Kasumi-1 cells [13]; Kasumi-1, 0.1 μM): 6.01%
- cells in S phase (Kasumi-1 cells [13]; Kasumi-1, 0.1 μM): 34.37%
- cells in G0/G1 phase (Kasumi-1 cells [13]; Kasumi-1, 1 μM): 71.75%
- cells in G2/M phase (Kasumi-1 cells [13]; Kasumi-1, 1 μM): 6.70%
- cells in S phase (Kasumi-1 cells [13]; Kasumi-1, 1 μM): 21.75%
- cells in G0/G1 phase (Kasumi-1 cells [13]; Kasumi-1, 5 μM): 71.07%
- cells in G2/M phase (Kasumi-1 cells [13]; Kasumi-1, 5 μM): 6.00%
- cells in S phase (Kasumi-1 cells [13]; Kasumi-1, 5 μM): 21.92%
- cell cycle block (Kasumi-1 cells [13]; Kasumi-1, 24 hours): blocked in G0/G1 phase
- apoptosis induction (HL60 cells [14]): can induce apoptosis
- IC50 (NB4-R1 cells [15]): 21 nM
- IC50 (HL60 cells [16]): 40 nM
- tumor size compared with control group [17]: obviously little than controls
- apoptosis induction (Kasumi-1 cells [18]): can induce apoptosis
- apoptosis induction (NB4-R1 cells [19]): can induce apoptosis
- variation of AML1-ETO fusion gene at the mRNA level (AML1-ETO fusion gene): no effect on the transcription of fusion gene
